Data as given in US20260365671A1, “HETEROCYCLIC COMPOUND” (Takeda Pharmaceutical Company Limited, priority 2022, published 2026).

Columns and labels:
[1] = biological target: T1, NLRP3 inflammasome (Homo sapiens, UniProt Q96P20); assay: IL-1β TR-FRET assay (THP-1 cells differentiated to macrophages with IFN-γ, LPS primed, ATP activated; HTRF); assay type: cell-based; details: THP-1 macrophages, 50 ng/mL LPS priming, compound 30 min, 20 mM ATP 2 hours
T1 construct: IL-1beta HTRF
Summary of the method: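 THP-1 cells differentiated with 25 ng/mL IFN-γ for 24 h, primed with 50 ng/mL LPS in serum-free medium for 24 h, then treated with compounds for 30 min before 20 mM ATP activation for 2 h at 37 °C. Secreted IL-1β quantified by HTRF; IC50 from logistic fit of % inhibition.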

[2] = test system: NF-κB pathway; assay: TNF-α assay (THP-1 cells differentiated to macrophages with IFN-γ, NF-κB pathway activated with LPS; ELISA); assay type: cell-based, Human; details: Homo sapiens, THP-1, THP-1 macrophages, compound 30 min, 50 ng/mL LPS 3 hours
Summary of the method: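 THP-1 cells differentiated with 25 ng/mL IFN-γ for 24 h, then 30 min with compounds in serum-free medium. NF-κB activated with 50 ng/mL LPS, 3 h at 37 °C. Supernatant TNF-α by ELISA; IC50 from four-parameter logistic fit of % inhibition.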

T1 sequence (Q96P20 whole entry): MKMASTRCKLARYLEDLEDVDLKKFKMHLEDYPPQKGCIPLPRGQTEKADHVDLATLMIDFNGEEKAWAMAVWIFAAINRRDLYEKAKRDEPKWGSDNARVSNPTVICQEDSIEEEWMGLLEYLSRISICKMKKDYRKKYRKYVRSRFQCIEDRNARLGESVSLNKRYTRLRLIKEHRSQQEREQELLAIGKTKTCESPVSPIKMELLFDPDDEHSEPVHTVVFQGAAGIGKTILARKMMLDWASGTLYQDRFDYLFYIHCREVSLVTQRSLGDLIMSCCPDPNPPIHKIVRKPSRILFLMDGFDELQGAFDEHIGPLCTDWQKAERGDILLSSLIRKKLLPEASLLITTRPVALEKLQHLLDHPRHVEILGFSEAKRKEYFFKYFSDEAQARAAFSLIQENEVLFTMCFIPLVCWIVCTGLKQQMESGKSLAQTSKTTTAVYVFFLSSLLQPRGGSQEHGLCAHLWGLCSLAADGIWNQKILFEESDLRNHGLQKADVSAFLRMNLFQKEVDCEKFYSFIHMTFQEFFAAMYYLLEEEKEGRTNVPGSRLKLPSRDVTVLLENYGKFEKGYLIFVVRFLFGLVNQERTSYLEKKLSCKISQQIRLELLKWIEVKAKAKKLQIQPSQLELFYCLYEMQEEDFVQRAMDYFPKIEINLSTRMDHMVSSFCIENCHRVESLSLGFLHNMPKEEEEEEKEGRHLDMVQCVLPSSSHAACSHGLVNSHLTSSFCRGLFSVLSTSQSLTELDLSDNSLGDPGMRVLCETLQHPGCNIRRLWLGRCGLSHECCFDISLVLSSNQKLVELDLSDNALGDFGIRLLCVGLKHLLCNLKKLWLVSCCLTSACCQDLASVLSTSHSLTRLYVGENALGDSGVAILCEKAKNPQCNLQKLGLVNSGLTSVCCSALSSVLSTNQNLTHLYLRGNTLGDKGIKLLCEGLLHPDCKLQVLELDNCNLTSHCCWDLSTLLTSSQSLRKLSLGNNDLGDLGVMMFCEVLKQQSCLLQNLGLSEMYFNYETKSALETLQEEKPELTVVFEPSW

| Structure (SMILES) | IC50 [1] | IC50 [2] |
| --- | --- | --- |
| Cc1cc(C)c(-n2cc3sc(NC[C@@H]4CCCO4)nc3n2)c(O)c1 [Example 116, 3,5-dimethyl-2-[5-({[(2S)-oxolan-2-yl]methyl}amino)-2H-pyrazolo[3,4-d][1,3]thiazol-2-yl]phenol] | 1100 nM | > 30000 nM |
| Cc1cc(C)c(-n2cc3sc(N[C@@H]4C[C@H](C(F)F)CN(C)C4)nc3n2)c(O)c1 [Example 33, 2-(5-{[(3R,5S)-5-(difluoromethyl)-1-methylpiperidin-3-yl]amino}-2H-pyrazolo[3,4-d][1,3]thiazol-2-yl)-3,5-dimethylphenol] | 1500 nM | > 10000 nM |
| Cc1cc(C)c(-n2cc3sc(NC4(CF)COC4)nc3n2)c(O)c1 [Example 170, 2-(5-{[3-(fluoromethyl)oxetan-3-yl]amino}-2H-pyrazolo[3,4-d][1,3]thiazol-2-yl)-3,5-dimethylphenol] | 2000 nM | > 30000 nM |
| CNC(=O)N1CCCC(Nc2nc3nn(-c4c(C)cc(C)cc4O)cc3s2)C1 (stereo not drawn) [Example 111, 3-{[2-(2-hydroxy-4,6-dimethylphenyl) 2H-pyrazolo[3,4-d][1,3]thiazol-5-yl]amino}-N-methyl-piperidine-1-carboxamide] | 810 nM | > 30000 nM |
| CCc1cc(C)cc(O)c1-n1cc2sc(NC34CCC(O)(CC3)C4)nc2n1 [Example 150, 4-{[2-(2-ethyl-6-hydroxy-4-methylphenyl)-2H-pyrazolo[3,4-d][1,3]thiazol-5-yl]amino}bicyclo[2.2.1]heptan-1-ol] | 120 nM | > 10000 nM |
| COCCN(c1nc2nn(-c3c(C)cc(C)cc3O)cc2s1)[C@@H]1CCCN(C)C1 [Example 52, 2-(5-{(2-methoxyethyl)[(3R)-1-methylpiperidin-3-yl]amino}-2H-pyrazolo[3,4-d][1,3]thiazol-2-yl)-3,5-dimethylphenol] | 200 nM | > 10000 nM |
| Cc1cc(C)c(-n2cc3sc(N[C@@H]4CCCN(C5CCOC5)C4)nc3n2)c(O)c1 (single isomer, unassigned) [Example 71, 3,5-dimethyl-2-[5-({(3R)-1-[(S)-oxolan-3-yl]piperidin-3-yl}amino)-2H-pyrazolo[3,4-d][1,3]thiazol-2-yl]phenol or 3,5-dimethyl-2-[5-({(3R)-1-[(R)-oxolan-3-yl]piperidin-3-yl}amino)-2H-pyrazolo[3,4-d][1,3]thiazol-2-yl]phenol (tR1)] | 43 nM | > 30000 nM |
| Oc1cc(F)cc(Cl)c1-n1cc2sc(N[C@@H]3CCCN(C4CC4)C3)nc2n1 [Example 18, 3-chloro-2-(5-{[(3R)-1-cyclopropyl-piperidin-3-yl]amino}-2H-pyrazolo[3,4-d][1,3]thiazol-2-yl)-5-fluorophenol] | 11 nM | > 30000 nM |
| CO[C@H]1CN(C)C[C@@H]1Nc1nc2nn(-c3c(C)cc(C)cc3O)cc2s1 [Example 40, 2-(5-{[(3S,4S)-4-methoxy-1-methylpyrrolidin-3-yl]amino}-2H-pyrazolo[3,4-d][1,3]thiazol-2-yl)-3,5-dimethylphenol] | 1800 nM | > 30000 nM |
| CN1CCC[C@@H](Nc2nc3nn(-c4ccc(Br)cc4O)cc3s2)C1 [Example 1, 5-bromo-2-(5-{[(3R)-1-methylpiperidin-3-yl]amino}-2H-pyrazolo[3,4-d][1,3]thiazol-2-yl)phenol] | 25 nM | > 10000 nM |
| Cc1cc(C)c(-n2cc3sc(N[C@@H]4CCN(CC(F)F)C4)nc3n2)c(O)c1 [Example 67, 2-(5-{[1-(2,2-difluoroethyl)pyrrolidin-3-yl]amino}-2H-pyrazolo[3,4-d][1,3]thiazol-2-yl)-3,5-dimethylphenol] | 950 nM | > 30000 nM |
| Cc1cc(C)c(-n2cc3sc(N[C@@H]4CC[C@@H](O)C4)nc3n2)c(O)c1 [Example 44, 2-(5-{[(1R,3R)-3-hydroxycyclopentyl]amino}-2H-pyrazolo[3,4-d][1,3]thiazol-2-yl)-3,5-dimethyphenol or 2-(5-{[(1S,3S)-3-hydroxycyclopentyl]amino}-2H-pyrazolo[3,4-d][1,3]thiazol-2-yl)-3,5-dimethylphenol (tR1)] | 240 nM | > 10000 nM |
| CC(=O)NCCCCNc1nc2nn(-c3c(C)cc(C)cc3O)cc2s1 [Example 39] | 390 nM | > 30000 nM |
| COCc1cc(C)cc(O)c1-n1cc2sc(N[C@@H]3C[C@@H](F)CN(C)C3)nc2n1 [Example 177, 2-(5-{[(3R,5R)-5-fluoro-1-methylpiperidin-3-yl]amino}-2H-pyrazolo[3,4-d][1,3]thiazol-2-yl)-3-(methoxymethyl)-5-methylphenol] | 40 nM | > 30000 nM |
| Cc1cc(O)c(-n2cc3sc(N[C@@H]4C[C@@H](F)CN(C)C4)nc3n2)c(CC(F)F)c1 [Example 175, 3-(2,2-difluoroethyl)-2-(5-{[(3R,5R)-5-fluoro-1-methylpiperidin-3-yl]amino}-2H-pyrazolo[3,4-d][1,3]thiazol-2-yl)-5-methylphenol] | 3.7 nM | > 30000 nM |
| CCC(=O)N1CCCC(Nc2nc3nn(-c4c(C)cc(C)cc4O)cc3s2)C1 (stereo not drawn) [Example 109, 1-(3-{[2-(2-hydroxy-4,6-dimethylphenyl)-2H-pyrazolo[3,4-d][1,3]thiazol-5-yl]amino}piperidin-1-yl)propan-1-one] | 590 nM | > 30000 nM |
| Cc1cc(C)c(-n2cc3sc(NC4CCN(S(=O)(=O)C5CC5)C4)nc3n2)c(O)c1 (stereo not drawn) [Example 101, 2-(5-{[1-(cyclopropanesulfonyl)pyrrolidin-3-yl]amino}-2H-pyrazolo[3,4-d][1,3]thiazol-2-yl)-3,5-dimethylphenol] | 420 nM | > 30000 nM |
| COc1cc(C)c(-n2cc3sc(N[C@@H]4CN(C)C[C@H]4F)nc3n2)c(O)c1 [Example 134, 2-(5-{[(3R,4R)-4-fluoro-1-methylpyrrolidin-3-yl]amino}-2H-pyrazolo[3,4-d][1,3]thiazol-2-yl)-5-methoxy-3-methylphenol] | 1500 nM | > 10000 nM |
| Cc1cc(C)c(-n2cc3sc(NC4CCCN(C(=O)CC(F)F)C4)nc3n2)c(O)c1 (stereo not drawn) [Example 113, 3,3-difluoro-1-(3-{[2-(2-hydroxy-4,6-dimethylphenyl)-2H-pyrazolo[3,4-d][1,3]thiazol-5-yl]amino}piperidin-1-yl)propan-1-one] | 510 nM | > 30000 nM |
| Cc1cc(C)c(-n2cc3sc(NC45CC(OC(F)F)(C4)C5)nc3n2)c(O)c1 [Example 173, 2-(5-{[3-(difluoromethoxy)bicyclo[1.1.1]pentan-1-yl]amino}-2H-pyrazolo[3,4-d][1,3]thiazol-2-yl)-3,5-dimethylphenol] | 3500 nM | > 10000 nM |
| CC(=O)N1C[C@H](Nc2nc3nn(-c4c(C)cc(C)cc4O)cc3s2)[C@@H](F)C1 (racemic) [Example 104, racemic mixture of 1-[(3R,4R)-3-fluoro-4-{[2-(2-hydroxy-4,6-dimethylphenyl)-2H-pyrazolo[3,4-d][1,3]thiazol-5-yl]amino}pyrrolidin-1-yl]ethan-1-one and 1-[(3S,4S)-3-fluoro-4-{[2-(2-hydroxy-4,6-dimethylphenyl)-2H-pyrazolo[3,4-d][1,3]thiazol-5-yl]amino}pyrrolidin-1-yl] ethan-1-one] | 440 nM | > 30000 nM |
| Cc1cc(C)c(-n2cc3sc(NC4CCN(C(=O)C(F)F)C4)nc3n2)c(O)c1 (stereo not drawn) [Example 90, 2,2-difluoro-1-(3-{[2-(2-hydroxy-4,6-dimethylphenyl)-2H-pyrazolo[3,4-d][1,3]thiazol-5-yl]amino}pyrrolidin-1-yl)ethan-1-one] | 540 nM | > 10000 nM |
| Cc1cc(O)c(-n2cc3sc(N[C@@H]4C[C@@H](F)CN(C)C4)nc3n2)c(COC(F)F)c1 [Example 176, 3-[(difluoromethoxy)methyl]-2-(5-{[(3R,5R)-5-fluoro-1-methylpiperidin-3-yl]amino}-2H-pyrazolo[3,4-d][1,3]thiazol-2-yl)-5-methylphenol] | 22 nM | > 30000 nM |
| Cc1cc(O)c(-n2cc3sc(N[C@@H]4C[C@@H](F)CN(C)C4)nc3n2)c(OC(F)F)c1 [Example 50, 3-(difluoromethoxy)-2-(5-{[(3R,5R)-5-fluoro-1-methylpiperidin-3-yl]amino}-2H-pyrazolo[3,4-d][1,3]thiazol-2-yl)-5-methylphenol] | 12 nM | > 30000 nM |
| Cc1cc(C)c(-n2cc3sc(N[C@H]4COC[C@H]4F)nc3n2)c(O)c1 [Example 144, 2-(5-{[(3R,4R)-4-fluorooxolan-3-yl]amino}-2H-pyrazolo [3,4-d][1,3]thiazol-2-yl)-3,5-dimethylphenol or 2-(5-{[(3S,4S)-4-fluorooxolan-3-yl]amino}-2H-pyrazolo[3,4-d][1,3]thiazol-2-yl)-3,5-dimethylphenol (tR1)] | 850 nM | > 30000 nM |
| Cc1cc(C)c(-n2cc3sc(NC[C@@H](C)OC(F)F)nc3n2)c(O)c1 [Example 172, 2-(5-{[(2R)-2-(difluoromethoxy)propyl]amino}-2H-pyrazolo[3,4-d][1,3]thiazol-2-yl)-3,5-dimethylphenol] | 750 nM | > 10000 nM |
| Cc1cc(C)c(-n2cc3sc(NC[C@H]4CCCO4)nc3n2)c(O)c1 [Example 117, 3,5-dimethyl-2-[5-({[(2R)-oxolan-2-yl]methyl}amino)-2H-pyrazolo[3,4-d][1,3]thiazol-2-yl]phenol] | 1300 nM | > 10000 nM |
